Measured values as given in patent publication US20230027361A1, “METTL3 MODULATORS” (priority 2019, published 2023).
Read-outs that look alike come from different tables or passages of the source.

Columns and labels:
METTL3/METTL14 = METTL3/METTL14 (Homo sapiens, UniProt Q86U44); experiment: METTL3-14 Standard Enzyme Assay (METTL3 biochemical assay)
Method: Assays were performed in a 25 μl-volume in 384-well V-bottom polypropylene microplates (Greiner Bio-One, cat. No. 781280) at ambient temperature. Optimized 1× assay buffer was 20 mM HEPES pH 7.5, 50 mM KCl, 250 μM MgCl2, 1 mM DTT, 0.01% Tween, 0.01% BSG, 0.004 U/μl RNAseOUT (cat. No. 10777019, ThermoFisher Scientific, Waltham, Mass.). For compound screening METTL3/METTL14 (final concentration, f.c.=2.5 nM) was added using a Multidrop Combi (ThermoFisher Scientific, Waltham, Mass.) and preincubated for 5 min. Reactions were started by adding 3′ biotinylated RNA ([…]-biotin) (f.c.=100 nM) and 3H-SAM (f.c.=100 nM) substrates. Reactions proceeded for 30 minutes and were quenched with excess non-radioactive SAM (f.c.=15 μM). The reactions were then transferred to streptavidin-coated flashplates and incubated for 2 hours at 25° C. Following two washing cycles with 0.1% Tween-20, the plates were sealed and read on a TopCount (PerkinElmer, Waltham, Mass.) plate-based scintillation counter. For determination of kinetic parameters, reaction times were optimized so that measurements were taken during the initial velocity phase of the reaction.

METTL1/WDR4 = METTL1/WDR4 (Homo sapiens, UniProt Q9UBP6); experiment: METTL1 Assay (METTL1 biochemical assay)
Sequence of METTL1/WDR4 (Q9UBP6 whole entry, species assumed): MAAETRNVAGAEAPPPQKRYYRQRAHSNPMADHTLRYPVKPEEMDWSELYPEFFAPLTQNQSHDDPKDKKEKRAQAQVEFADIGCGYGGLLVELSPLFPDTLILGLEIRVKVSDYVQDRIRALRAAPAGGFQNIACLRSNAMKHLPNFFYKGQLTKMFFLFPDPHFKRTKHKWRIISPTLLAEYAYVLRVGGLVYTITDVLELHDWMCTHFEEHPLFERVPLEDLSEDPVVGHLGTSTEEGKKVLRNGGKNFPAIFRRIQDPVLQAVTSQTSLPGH
Sequence of METTL1/WDR4 (P57081 whole entry partner, species assumed): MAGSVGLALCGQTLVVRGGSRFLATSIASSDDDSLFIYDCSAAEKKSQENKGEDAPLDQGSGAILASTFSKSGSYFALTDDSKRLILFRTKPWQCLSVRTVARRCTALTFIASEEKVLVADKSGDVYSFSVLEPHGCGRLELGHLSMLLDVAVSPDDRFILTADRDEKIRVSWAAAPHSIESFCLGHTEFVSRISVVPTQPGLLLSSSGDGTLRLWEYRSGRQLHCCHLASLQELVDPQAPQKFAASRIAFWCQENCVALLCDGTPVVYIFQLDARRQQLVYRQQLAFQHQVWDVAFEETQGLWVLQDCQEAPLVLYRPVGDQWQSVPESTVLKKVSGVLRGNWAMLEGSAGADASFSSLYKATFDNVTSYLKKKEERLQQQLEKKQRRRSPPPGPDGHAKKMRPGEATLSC
Method: Assays were performed in a 25 μl-volume in 384-well V-bottom polypropylene microplates (Greiner Bio-One, cat. No. 781280) at ambient temperature. Optimized 1× assay buffer was 20 mM HEPES pH 7.5, 50 mM KCl, 250 μM MgCl2, 1 mM DTT, 0.01% Tween, 0.01% BSG, 0.004 U/μl RNAseOUT (cat. No. 10777019, ThermoFisher Scientific, Waltham, Mass.). For compound screening METTL1/WDR4 (final concentration, f.c.=6.25 nM) was added using a Multidrop Combi (ThermoFisher Scientific, Waltham, Mass.) and preincubated for 5 min. Reactions were started by adding 3′ biotinylated RNA ([…]-biotin) (f.c.=25 nM) and 3H-SAM (f.c.=60 nM) substrates. Reactions proceeded for 20 minutes and were quenched with excess non-radioactive SAM (f.c.=15 μM). The reactions were then transferred to streptavidin-coated flashplates and incubated for 2 hours at 25° C. Following two washing cycles with 0.1% Tween-20, the plates were sealed and read on a TopCount (PerkinElmer, Waltham, Mass.) plate-based scintillation counter. For determination of kinetic parameters, reaction times were optimized so that measurements were taken during the initial velocity phase of the reaction.

PRMT5-MEP50 = PRMT5-MEP50 (Homo sapiens, UniProt O14744); experiment: PRMT5 Assay (PRMT5 biochemical assay)
Sequence of PRMT5-MEP50 (O14744 whole entry): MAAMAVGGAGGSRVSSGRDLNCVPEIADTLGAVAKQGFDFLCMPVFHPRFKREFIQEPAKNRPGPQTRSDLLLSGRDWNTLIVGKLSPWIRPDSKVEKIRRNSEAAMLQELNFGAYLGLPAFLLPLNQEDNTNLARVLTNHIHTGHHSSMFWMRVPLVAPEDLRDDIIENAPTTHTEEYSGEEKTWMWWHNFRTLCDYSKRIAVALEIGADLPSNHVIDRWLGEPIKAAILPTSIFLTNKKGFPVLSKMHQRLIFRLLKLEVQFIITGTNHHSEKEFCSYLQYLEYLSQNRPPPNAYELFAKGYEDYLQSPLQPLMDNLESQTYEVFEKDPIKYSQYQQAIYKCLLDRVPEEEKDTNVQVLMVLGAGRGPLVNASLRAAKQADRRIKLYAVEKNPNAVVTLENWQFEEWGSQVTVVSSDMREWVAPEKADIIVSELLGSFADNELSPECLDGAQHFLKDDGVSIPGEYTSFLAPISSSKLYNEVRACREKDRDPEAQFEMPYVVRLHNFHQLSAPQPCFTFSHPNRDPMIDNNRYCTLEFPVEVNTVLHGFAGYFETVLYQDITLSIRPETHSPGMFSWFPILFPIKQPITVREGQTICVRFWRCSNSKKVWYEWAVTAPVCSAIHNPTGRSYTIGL
Sequence of PRMT5-MEP50 (Q9BQA1 whole entry partner): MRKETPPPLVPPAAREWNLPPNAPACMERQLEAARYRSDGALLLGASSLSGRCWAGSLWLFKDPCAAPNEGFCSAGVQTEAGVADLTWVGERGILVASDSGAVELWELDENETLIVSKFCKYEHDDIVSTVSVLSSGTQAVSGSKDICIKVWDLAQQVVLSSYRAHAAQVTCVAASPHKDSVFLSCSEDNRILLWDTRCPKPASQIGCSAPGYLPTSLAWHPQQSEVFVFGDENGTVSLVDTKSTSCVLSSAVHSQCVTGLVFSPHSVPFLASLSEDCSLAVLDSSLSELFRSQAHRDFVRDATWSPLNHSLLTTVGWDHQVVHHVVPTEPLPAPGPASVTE
Method: Assays were performed in a 25 μl-volume in 384-well V-bottom polypropylene microplates (Greiner Bio-One, cat. No. 781280) at ambient temperature. Optimized 1× assay buffer was 20 mM Tris-HCl pH 8.0, 1 mM DTT, […]. For compound screening PRMT5-MEP50 (final concentration, f.c.=2.5 nM) was added using a Multidrop Combi (ThermoFisher Scientific, Waltham, Mass.) and preincubated for 5 min. Reactions were started by adding 3′ biotinylated histone H4 peptide acetylated on serine 1 (Ac-[…]-Biotin) (f.c.=100 nM) and 3H-SAM (f.c.=250 nM) substrates. Reactions proceeded for 60 minutes and were quenched with excess non-radioactive SAM (f.c.=15 μM). The reactions were then transferred to streptavidin-coated flashplates and incubated for 2 hours at 25° C. Following two washing cycles with 0.1% Tween-20, the plates were sealed and read on a TopCount (PerkinElmer, Waltham, Mass.) plate-based scintillation counter. For determination of kinetic parameters, reaction times were optimized so that measurements were taken during the initial velocity phase of the reaction.

[1] = METTL3 biochemical assay, read-out: METTL3 IC50
[2] = read-out: METTL1 IC50; METTL1 biochemical assay
[3] = PRMT5 biochemical assay, read-out: PRMT5 IC50
[4] = METTL1 biochemical assay; read-out: METTL1 IC50

Sequence of METTL3/METTL14 (Q86U44 whole entry, species assumed): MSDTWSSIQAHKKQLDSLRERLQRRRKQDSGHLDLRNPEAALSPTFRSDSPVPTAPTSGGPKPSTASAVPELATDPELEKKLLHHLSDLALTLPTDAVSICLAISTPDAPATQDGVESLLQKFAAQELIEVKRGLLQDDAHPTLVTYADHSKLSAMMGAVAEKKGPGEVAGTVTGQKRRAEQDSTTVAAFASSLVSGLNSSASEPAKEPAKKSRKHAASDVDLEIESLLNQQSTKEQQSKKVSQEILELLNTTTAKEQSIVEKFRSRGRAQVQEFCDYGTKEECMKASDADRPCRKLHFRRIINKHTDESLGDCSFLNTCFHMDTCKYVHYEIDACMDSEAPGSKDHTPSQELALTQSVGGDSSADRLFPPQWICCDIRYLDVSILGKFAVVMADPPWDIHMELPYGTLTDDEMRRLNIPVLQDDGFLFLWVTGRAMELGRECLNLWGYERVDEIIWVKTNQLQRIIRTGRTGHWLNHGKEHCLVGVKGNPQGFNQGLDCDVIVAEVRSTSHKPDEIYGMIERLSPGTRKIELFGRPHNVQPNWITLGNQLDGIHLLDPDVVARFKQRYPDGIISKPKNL
Sequence of METTL3/METTL14 (Q9HCE5 whole entry partner, species assumed): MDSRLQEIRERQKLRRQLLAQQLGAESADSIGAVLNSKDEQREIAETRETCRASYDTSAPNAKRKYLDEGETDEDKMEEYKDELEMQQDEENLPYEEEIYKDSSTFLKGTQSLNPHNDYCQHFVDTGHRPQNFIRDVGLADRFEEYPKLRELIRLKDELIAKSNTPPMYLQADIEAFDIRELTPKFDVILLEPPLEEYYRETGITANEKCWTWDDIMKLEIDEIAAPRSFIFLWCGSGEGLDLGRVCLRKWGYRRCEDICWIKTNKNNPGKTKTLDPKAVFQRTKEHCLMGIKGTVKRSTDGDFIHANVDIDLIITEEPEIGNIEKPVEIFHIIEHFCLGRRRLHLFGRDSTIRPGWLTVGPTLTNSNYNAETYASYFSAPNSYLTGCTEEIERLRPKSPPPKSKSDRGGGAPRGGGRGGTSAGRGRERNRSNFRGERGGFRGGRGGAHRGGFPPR

Compound | IC50 (METTL3/METTL14; [1]) [µM] | IC50 (METTL1/WDR4; [2]) [µM] | IC50 (PRMT5-MEP50; [3]) [µM] | further results
Nc1ncnc2c1ccn2[C@@H]1C[C@H](CCc2ccc3ccc(NCCO)nc3c2)[C@@H](O)[C@H]1O [I-105] | 0.1 to 1 | > 1 | < 0.01 | –
Cc1cc2c(N)ncnc2n1[C@@H]1C[C@H](COc2ccc3ccc(N)nc3c2)[C@@H](O)[C@H]1O [I-56] | > 1 | > 1 | < 0.01 | –
Nc1ccc2ccc(CC[C@H]3C[C@@H](n4cc([C@@H]5CCOC5)c5c(N)ncnc54)[C@H](O)[C@@H]3O)cc2n1 [I-49] | 0.1 to 1 | > 1 | < 0.01 | –
CNc1ccc2cc(CC[C@H]3C[C@@H](n4cc(C)c5c(N)ncnc54)[C@H](O)[C@@H]3O)ccc2n1 [I-64] | 0.1 to 1 | > 1 | 0.01 to 0.1 | –
Nc1ccc2ccc(CC[C@H]3C[C@@H](n4ccc5c(NCCc6ccccc6)ncnc54)[C@H](O)[C@@H]3O)cc2n1 [I-134] | – | > 1 | < 0.01 | –
Nc1ncnc2c1ccn2[C@@H]1C[C@H](CCc2ccc3c(OCc4ccccc4)ccnc3c2)[C@@H](O)[C@H]1O [I-86] | > 1 | > 1 | < 0.01 | –
Nc1ncnc2c1ccn2[C@@H]1C[C@H](CCc2ccc3[nH]cnc3c2)[C@@H](O)[C@H]1O [I-88] | > 1 | > 1 | < 0.01 | –
Cc1cc2c(N)ncnc2n1[C@@H]1C[C@H](CCc2ccc3ccc(N)nc3c2)[C@@H](O)[C@H]1O [I-65] | > 1 | > 1 | < 0.01 | –
O[C@@H]1[C@@H](CCc2ccc3[nH]ncc3c2)C[C@@H](n2ccc3c(NCCc4ccccc4)ncnc32)[C@@H]1O [I-89] | > 1 | > 1 | 0.1 to 1 | –
CNc1ccc2ccc(OC[C@H]3O[C@@H](n4cnc5c(N)ncnc54)[C@H](O)[C@@H]3O)cc2n1 [I-76] | 0.01 to 0.1 | > 1 | < 0.01 | –
Cc1nc(N)c2ccn([C@@H]3C[C@H](CCc4ccc5ccc(N)nc5c4)[C@@H](O)[C@H]3O)c2n1 [I-119] | > 1 | > 1 | < 0.01 | –
CNc1ccc2ccc(OC[C@H]3O[C@@H](n4cc(-c5cn(C(C)C)cn5)c5c(N)ncnc54)[C@@H](F)[C@@H]3O)cc2n1 [I-233] | – | – | – | IC50 (METTL3/METTL14): 0.01 to 0.1 µM; IC50 (METTL1/WDR4; [4]): > 1 µM; IC50 (PRMT5-MEP50): > 1 µM
Cc1cc2c(NCCc3ccccc3)ncnc2n1[C@@H]1C[C@H](CCc2ccc3ccc(N)nc3c2)[C@@H](O)[C@H]1O [I-61] | > 1 | > 1 | < 0.01 | –
CCCc1cn([C@@H]2C[C@H](CCc3ccc4ccc(N)nc4c3)[C@@H](O)[C@H]2O)c2ncnc(N)c12 [I-62] | 0.1 to 1 | > 1 | < 0.01 | –
Nc1ncnc2c1ccn2[C@@H]1C[C@H](CCc2ccc3cn[nH]c3c2)[C@@H](O)[C@H]1O [I-103] | > 1 | > 1 | 0.01 to 0.1 | –
Cc1cc2c(N)ncnc2n1[C@@H]1C[C@H](CCc2ccc3nc(N)ccc3c2)[C@@H](O)[C@H]1O [I-57] | > 1 | > 1 | 0.01 to 0.1 | –
Nc1ccc2ccc(CC[C@H]3C[C@@H](n4cc(Br)c5c(N)ncnc54)[C@H](O)[C@@H]3O)cc2n1 [I-107] | 0.01 to 0.1 | > 1 | < 0.01 | –
CNC(=O)Nc1cccc(CC[C@H]2C[C@@H](n3ccc4c(N)ncnc43)[C@H](O)[C@@H]2O)c1 [I-99] | > 1 | > 1 | 0.1 to 1 | –
Nc1ccc2ccc(NC[C@H]3C[C@@H](n4ccc5c(N)ncnc54)[C@H](O)[C@@H]3O)cc2n1 [I-109] | > 1 | > 1 | 0.01 to 0.1 | –
NC(=O)Nc1cccc(CC[C@H]2C[C@@H](n3ccc4c(N)ncnc43)[C@H](O)[C@@H]2O)c1 [I-95] | > 1 | > 1 | 0.1 to 1 | –

Compound | IC50 (METTL3/METTL14; [1]) [µM] | IC50 (METTL1/WDR4; [2]) [µM] | IC50 (PRMT5-MEP50; [3]) [µM] | further results
Nc1ncnc2c1ccn2[C@@H]1C[C@H](CCc2ccc3ccccc3c2)[C@@H](O)[C@H]1O [I-136] | – | > 1 | > 1 | –
Nc1ccc2ccc(OC[C@H]3O[C@@H](n4ccc5c(N)ncnc54)[C@H](O)[C@@H]3O)cc2n1 [I-80] | 0.01 to 0.1 | > 1 | < 0.01 | –
Nc1ncnc2c1ccn2[C@@H]1C[C@H](CCc2ccc3ccc(NCC4CC4)nc3c2)[C@@H](O)[C@H]1O [I-132] | – | – | < 0.01 | IC50 (METTL1/WDR4; [4]): > 1 µM
CNc1ccc2ccc(OC[C@H]3O[C@@H](n4cc(C5CCC(F)(F)CC5)c5c(N)ncnc54)[C@H](O)[C@@H]3O)cc2n1 [I-4] | < 0.01 | > 1 | 0.01 to 0.1 | –
Nc1ncnc2c1ccn2[C@@H]1C[C@H](CCc2ccc3cc(C#Cc4ccccc4)cnc3c2)[C@@H](O)[C@H]1O [I-112] | > 1 | > 1 | 0.01 to 0.1 | –
Nc1ncnc2c1ccn2[C@@H]1C[C@H](CCc2ccc3cccnc3n2)[C@@H](O)[C@H]1O [I-128] | > 1 | > 1 | < 0.01 | –
CCc1cc(N)c2ccc(OC[C@H]3O[C@@H](n4cc(-c5ccn(C)n5)c5c(N)ncnc54)[C@@H](F)[C@@H]3O)cc2n1 [I-145] | – | – | – | IC50 (METTL3/METTL14; read-out: METTL3 IC50, METTL3 biochemical assay): < 0.01 µM; IC50 (METTL1/WDR4; [4]): > 1 µM; IC50 (PRMT5-MEP50; read-out: PRMT5 IC50, PRMT5 biochemical assay): 0.1 to 1 µM
Nc1ncnc2c1ccn2[C@@H]1C[C@H](CCc2ccc3cc[nH]c3c2)[C@@H](O)[C@H]1O [I-101] | > 1 | > 1 | 0.1 to 1 | –
Nc1ncnc2c1ccn2[C@@H]1O[C@H](COc2ccc3ccc(N4CCOCC4)nc3c2)[C@@H](O)[C@H]1O [I-77] | 0.01 to 0.1 | > 1 | 0.1 to 1 | –
Nc1ncnc2c1ccn2[C@@H]1C[C@H](CCc2ccc3c(OCC4CC4)ccnc3c2)[C@@H](O)[C@H]1O [I-85] | > 1 | > 1 | < 0.01 | –
CC(C)Nc1ccc2ccc(CC[C@H]3C[C@@H](n4ccc5c(N)ncnc54)[C@H](O)[C@@H]3O)cc2n1 [I-116] | 0.01 to 0.1 | > 1 | < 0.01 | –
Nc1cccc2ccc(CC[C@H]3C[C@@H](n4ccc5c(N)ncnc54)[C@H](O)[C@@H]3O)cc12 [I-110] | > 1 | > 1 | 0.1 to 1 | –
CN(C[C@H]1C[C@@H](n2ccc3c(N)ncnc32)[C@H](O)[C@@H]1O)c1ccc2ccc(N)nc2c1 [I-94] | > 1 | > 1 | < 0.01 | –
Nc1ccc2ccc(CC[C@H]3C[C@@H](n4ccc5c(N)ncnc54)[C@H](O)[C@@H]3O)cc2c1 [I-108] | > 1 | > 1 | 0.1 to 1 | –
Nc1ncnc2c1ccn2[C@@H]1C[C@H](CCc2ccc3cc(Br)cnc3c2)[C@@H](O)[C@H]1O [I-137] | – | > 1 | < 0.01 | –
Nc1ncnc2c1ccn2[C@@H]1C[C@H](CCc2ccc3ccncc3c2)[C@@H](O)[C@H]1O [I-131] | – | > 1 | 0.01 to 0.1 | –
Nc1ncnc2c1ccn2[C@@H]1C[C@H](CCc2ccc3cccnc3c2)[C@@H](O)[C@H]1O [I-133] | – | – | < 0.01 | IC50 (METTL1/WDR4; [4]): > 1 µM
CCCNc1ccc2ccc(CC[C@H]3C[C@@H](n4ccc5c(N)ncnc54)[C@H](O)[C@@H]3O)cc2n1 [I-120] | – | > 1 | < 0.01 | –
Cc1cn([C@@H]2C[C@H](CCc3ccc4ccc(N)nc4c3)[C@@H](O)[C@H]2O)c2ncnc(N)c12 [I-66] | – | > 1 | < 0.01 | –
